Consider 6 molecules from US4428942A, “Analogs of somatostatin” (The Salk Institute for Biological Studies, priority 1982, dated 1984).

Molecules are shown by their SMILES. Where two headings read alike, the source gives them in different places. Bridge positions count the residues as written; N and C are the ends. Square brackets hold non-standard residues; d marks the D form. Peptide text beside a SMILES is read from it. A value given as a limit tells only on which side of the number the result lay.

For test [1], the system named is secretion of insulin. The following applies: in vivo. The protocol: (§1) In vivo experiments are carried out with the analogs, using the procedure described in Brown et al., Metabolism (1976) Vol. 25, pp. 1501-1503, to determine the potency, relative to somatostatin-14, to inhibit the secretion of glucagon and insulin stimulated by the administration of arginine to groups of six rats.

In test [2] the test system is secretion of glucagon. More on the design: species or system rats. The following applies: in vivo. The protocol:
as §1

In test [3] the test system is release of growth hormone induced by isobutyl methyl xanthine in pituitary cells. Format: cell-based, rat. The protocol: To determine the effectiveness of the peptides to inhibit the release of growth hormone, in vitro radioimmunoassays are carried out using the SS analogs in side-by-side comparison with equimolar concentrations of somatostatin-14 having a known effectiveness to inhibit the release of growth hormone induced by the application of isobutyl methyl xanthine to pituitary cells. Cultures are used which include cells of rat pituitary glands removed some four to five days previously in a system that minimizes enzymatic degradation, generally following the procedure set forth in Vale et al., Methods in Enzymology, Hormones and Cyclic Nucleotides (1975) Vol. 37, p. 82. Both cultures of a defined standard medium and cultures which are considered optimal for the secretion of growth hormone, as a result of having additions of either 2% or 10% of serum from a foetal calf, are used for the comparative testing.

Test [4] concerns isolated rabbit ileum. The protocol:
The analogs are tested in vitro in isolated rabbit ileum using the modified Ussing chamber technique, as described in Amer. J. of Physiol., 225:776-780 (1973). Unidirectional chloride fluxes are determined and used to characterize bi-directional fluxes following the addition of an SS-analog. Changes are measured with varying concentrations, and the potency to inhibit ion transport is quantitated and expressed as a percentage of the potency of SS-14.

Setting [5] is: arginine-stimulated, rats, SS-14 = 100.
Setting [6] is: cultured rat pituitary cells, isobutyl methyl xanthine-induced release, SS-14 = 100.
Setting [7] is: isolated rabbit ileum, Ussing chamber, chloride fluxes, SS-14 = 100.

Consider `C[C@H](N)C(=O)NCC(=O)N[C@H]1CSSC[C@@H](C(=O)O)NC(=O)[C@H]([C@@H](C)O)NC(=O)[C@H](Cc2ccccc2)NC(=O)[C@H]([C@@H](C)O)NC(=O)[C@H](CCCCN)NC(=O)[C@H](Cc2c[nH]c3ccccc23)NC(=O)[C@H](Cc2ccccc2)NC(=O)[C@H](Cc2ccccc2)NC(=O)[C@H](CC(N)=O)NC(=O)[C@H](CCCCN)NC1=O` [Peptide 14, des-Ser^13 --SS] (H-AGCKNFFWKTFTC-OH; disulfide 3-13), for which the “Insulin (potency to inhibit insulin secretion relative to SS-14)” value in test [1] (rat) is reported as less than 1%. Besides, the “Glucagon (potency to inhibit glucagon secretion relative to SS-14)” value in test [2] (rat) was less than 1%. For the same molecule, the “GH (potency for the inhibition of GH release relative to SS-14)” value in test [3] stood at 2%. In test [4], the “Ion Transport (potency to inhibit ion transport expressed as a percentage of the potency of SS-14)” value is 9%.
`C[C@H](N)C(=O)NCC(=O)N[C@H]1CSSC[C@@H](C(=O)O)NC(=O)[C@H](CO)NC(=O)[C@H]([C@@H](C)O)NC(=O)[C@H](Cc2ccccc2)NC(=O)[C@H]([C@@H](C)O)NC(=O)[C@H](CCCCN)NC(=O)[C@H](Cc2c[nH]c3ccccc23)NC(=O)[C@H](Cc2ccccc2)NC(=O)[C@H](Cc2ccccc2)NC(=O)[C@H](CC(N)=O)NC(=O)[C@H](CCCCN)NC1=O` [SS-14, somatostatin]: the “Insulin (potency to inhibit insulin secretion relative to SS-14)” value in test [1] (setting [5]) stood at 100%. Besides, the “Glucagon (potency to inhibit glucagon secretion relative to SS-14)” value in test [2] (setting [5]) is 100%. The “GH (potency for the inhibition of GH release relative to SS-14)” value in test [3] (setting [6]) came to 100%. In addition, the “Ion Transport (potency to inhibit ion transport expressed as a percentage of the potency of SS-14)” value in test [4] (setting [7]) is listed as 100%.
Regarding `C[C@H](N)C(=O)NCC(=O)N[C@H]1CSSC[C@@H](C(=O)O)NC(=O)[C@H](CO)NC(=O)[C@H](Cc2ccccc2)NC(=O)[C@H]([C@@H](C)O)NC(=O)[C@H](CCCCN)NC(=O)[C@H](Cc2c[nH]c3ccccc23)NC(=O)[C@H](Cc2ccccc2)NC(=O)[C@H](Cc2ccccc2)NC(=O)[C@H](CC(N)=O)NC(=O)[C@H](CCCCN)NC1=O` [Peptide 7, des-Thr^12 --SS] (H-AGCKNFFWKTFSC-OH; disulfide 3-13), the “Insulin (potency to inhibit insulin secretion relative to SS-14)” value in test [1] (rat) was less than 1%. For the same molecule, in test [2] (rat), the “Glucagon (potency to inhibit glucagon secretion relative to SS-14)” value is less than 1%. Besides, the “GH (potency for the inhibition of GH release relative to SS-14)” value in test [3] is on record as 2%. Further, the “Ion Transport (potency to inhibit ion transport expressed as a percentage of the potency of SS-14)” value in test [4] was determined as 21%.
For the molecule `C[C@H](N)C(=O)NCC(=O)N[C@H]1CSSC[C@@H](C(=O)O)NC(=O)[C@H](CO)NC(=O)[C@H]([C@@H](C)O)NC(=O)[C@H](Cc2ccccc2)NC(=O)[C@H]([C@@H](C)O)NC(=O)[C@H](CCCCN)NC(=O)[C@H](Cc2c[nH]c3ccccc23)NC(=O)[C@H](Cc2ccccc2)NC(=O)[C@@H](Cc2ccccc2)NC(=O)[C@H](CC(N)=O)NC(=O)[C@H](CCCCN)NC1=O` [Peptide 16, [D-Phe^6]--SS], the “Insulin (potency to inhibit insulin secretion relative to SS-14)” value in test [1] (setting [5]) is less than 1%. In addition, in test [2] (setting [5]), the “Glucagon (potency to inhibit glucagon secretion relative to SS-14)” value was less than 1%. The “GH (potency for the inhibition of GH release relative to SS-14)” value in test [3] (setting [6]) is 5%. Besides, the “Ion Transport (potency to inhibit ion transport expressed as a percentage of the potency of SS-14)” value in test [4] (setting [7]) is listed as 10%.
`C[C@@H](O)[C@@H]1NC(=O)[C@H](CCCCN)NC(=O)[C@@H](Cc2c[nH]c3ccccc23)NC(=O)[C@H](Cc2ccccc2)NC(=O)[C@H](Cc2ccccc2)NC(=O)[C@@H](N)CSSC[C@@H](C(=O)O)NC(=O)[C@H](CO)NC(=O)[C@H](Cc2ccccc2)NC1=O` [Peptide 6, des-AA^1,2,4,5,12,[D-Trp^8]--SS] (H-CFF[dW]KTFSC-OH; disulfide 1-9): in test [1] (rat), the “Insulin (potency to inhibit insulin secretion relative to SS-14)” value is reported as 70%. Also, the “Glucagon (potency to inhibit glucagon secretion relative to SS-14)” value in test [2] (rat) was 20%. Besides, the “GH (potency for the inhibition of GH release relative to SS-14)” value in test [3] is 45%. The “Ion Transport (potency to inhibit ion transport expressed as a percentage of the potency of SS-14)” value in test [4] was determined as 257%.
For `C[C@H](N)C(=O)NCC(=O)N[C@H]1CSSC[C@@H](C(=O)O)NC(=O)[C@H](CO)NC(=O)[C@H]([C@@H](C)O)NC(=O)[C@H](Cc2ccccc2)NC(=O)[C@H]([C@@H](C)O)NC(=O)[C@H](CCCCN)NC(=O)[C@H](Cc2c[nH]c3ccccc23)NC(=O)[C@H](Cc2ccccc2)NC(=O)[C@H](Cc2ccccc2)NC(=O)[C@H](CC(N)=O)NC(=O)[C@@H](CCCCN)NC1=O` [Peptide 15, [D-Lys^4]--SS], the “Insulin (potency to inhibit insulin secretion relative to SS-14)” value in test [1] (setting [5]) came out at 1%. Besides, the “Glucagon (potency to inhibit glucagon secretion relative to SS-14)” value in test [2] (setting [5]) is reported as 1%. Further, the “GH (potency for the inhibition of GH release relative to SS-14)” value in test [3] (setting [6]) is reported as 22%. The “Ion Transport (potency to inhibit ion transport expressed as a percentage of the potency of SS-14)” value in test [4] (setting [7]) was determined as 139%.
